# Experimental data published in ChEMBL document CHEMBL3297661, “1-Substituted-5-[(3,5-dinitrobenzyl)sulfanyl]-1H-tetrazoles and their isosteric analogs: A new class of selective antitubercular agents active against drug-susceptible and multidrug-resistant mycobacteria” (Eur J Med Chem, 2014).
# Columns and labels:
# [1] = Cytotoxicity against human HeLa cells assessed as cell viability at 30 uM after 48 hrs by MTT assay; assay type: cell-based; conditions: read-out: Activity
# Enterococcus faecalis [2] = experiment: Antibacterial activity against Enterococcus faecalis J 14365/08 after 24 hrs by broth microdilution method; assay type: functional; conditions: J 14365/08, 24 h
# Mycobacterium kansasii [3] = experiment: Antimycobacterial activity against Mycobacterium kansasii 6509/96 after 14 days by micromethod; assay type: functional; conditions: 6509/96, 336 h
# [4] = Cytotoxicity against MDCK2 cells assessed as reduction in cell viability after 48 hrs by MTT assay; assay type: cell-based; conditions: Canis lupus familiaris, MDCK-II
# Enterococcus faecalis [5] = experiment: Antibacterial activity against Enterococcus faecalis J 14365/08 after 48 hrs by broth microdilution method; assay type: functional; conditions: J 14365/08, 48 h
# Staphylococcus aureus [6] = experiment: Antibacterial activity against Staphylococcus aureus ATCC 6538 after 48 hrs by broth microdilution method; assay type: functional; conditions: ATCC 6538, 48 h
# Pichia kudriavzevii [7] = experiment: Antifungal activity against Candida krusei E28 after 48 hrs by broth microdilution method; assay type: functional; conditions: E28, 48 h
# Staphylococcus aureus [8] = experiment: Antibacterial activity against Staphylococcus aureus ATCC 6538 after 24 hrs by broth microdilution method; assay type: functional; conditions: ATCC 6538, 24 h
# Mycobacterium kansasii [9] = experiment: Antimycobacterial activity against Mycobacterium kansasii CNCTC My 235/80 after 14 days by micromethod; assay type: functional; conditions: CNCTC My 235/80, 336 h
# Trichosporon asahii [10] = experiment: Antifungal activity against Trichosporon asahii 1188 after 48 hrs by broth microdilution method; assay type: functional; conditions: Trichosporon asahii, 1188, 48 h
# HepG2 = experiment: Cytotoxicity against human HepG2 cells assessed as reduction in cell viability after 48 hrs by MTT assay; assay type: cell-based; conditions: HepG2, 48 h
# Candida albicans [11] = experiment: Antifungal activity against Candida albicans ATCC 44859 after 48 hrs by broth microdilution method; assay type: functional; conditions: ATCC 44859, 48 h
# Mycobacterium avium [12] = experiment: Antimycobacterial activity against Mycobacterium avium CNCTC My 330/88 after 21 days by micromethod; assay type: functional; conditions: CNCTC My 330/88, 504 h
# [13] = Cytotoxicity against MDCK2 cells assessed as cell viability at 30 uM after 48 hrs by MTT assay; assay type: cell-based, Canis lupus familiaris, MDCK-II; conditions: dog, read-out: Activity
# HeLa = experiment: Cytotoxicity against human HeLa cells assessed as reduction in cell viability after 48 hrs by MTT assay; assay type: cell-based
# Lichtheimia corymbifera [14] = experiment: Antifungal activity against Absidia corymbifera 272 after 48 hrs by broth microdilution method; assay type: functional, organism-based; conditions: Lichtheimia corymbifera, 272, 48 h
# Mycobacterium kansasii [15] = experiment: Antimycobacterial activity against Mycobacterium kansasii CNCTC My 235/80 after 7 days by micromethod; assay type: functional; conditions: CNCTC My 235/80, 168 h
# Candida albicans [16] = experiment: Antifungal activity against Candida albicans ATCC 44859 after 24 hrs by broth microdilution method; assay type: functional; conditions: ATCC 44859, 24 h
# [17] = tested on: Trichophyton mentagrophytes; experiment: Antifungal activity against Trichophyton mentagrophytes 445 after 72 hrs by broth microdilution method; assay type: functional, organism-based; conditions: Trichophyton mentagrophytes, 445, 72 h
# [18] = tested on: Mycobacterium tuberculosis; experiment: Antimycobacterial activity against Mycobacterium tuberculosis CNCTC My 331/88 after 14 days by micromethod; assay type: functional; conditions: CNCTC My 331/88, 336 h
# Pseudomonas aeruginosa [19] = experiment: Antibacterial activity against Pseudomonas aeruginosa ATCC 9027 after 24 hrs by broth microdilution method; assay type: functional; conditions: ATCC 9027, 24 h
# Klebsiella pneumoniae [20] = experiment: Antibacterial activity against Klebsiella pneumoniae D 11750/08 after 24 hrs by broth microdilution method; assay type: functional; conditions: D 11750/08, 24 h
# Aspergillus fumigatus [21] = experiment: Antifungal activity against Aspergillus fumigatus 231 after 24 hrs by broth microdilution method; assay type: functional, organism-based; conditions: Aspergillus fumigatus, 231, 24 h
# Candida tropicalis [22] = experiment: Antifungal activity against Candida tropicalis 156 after 24 hrs by broth microdilution method; assay type: functional; conditions: Candida tropicalis, 156, 24 h
# [23] = tested on: Mycobacterium tuberculosis; experiment: Antimycobacterial activity against Mycobacterium tuberculosis CNCTC My 331/88 after 21 days by micromethod; assay type: functional; conditions: CNCTC My 331/88, 504 h
# Nakaseomyces glabratus [24] = experiment: Antifungal activity against Candida glabrata 20/I after 24 hrs by broth microdilution method; assay type: functional
# Mycobacterium kansasii [25] = experiment: Antimycobacterial activity against Mycobacterium kansasii 6509/96 after 7 days by micromethod; assay type: functional; conditions: 6509/96, 168 h
# Pichia kudriavzevii [26] = experiment: Antifungal activity against Candida krusei E28 after 24 hrs by broth microdilution method; assay type: functional; conditions: E28, 24 h
# Staphylococcus aureus [27] = experiment: Antibacterial activity against methicillin-resistant Staphylococcus aureus H 5996/08 after 48 hrs by broth microdilution method; assay type: functional; conditions: H 5996/08, 48 h
# [28] = tested on: Staphylococcus epidermidis; experiment: Antibacterial activity against Staphylococcus epidermidis H 6966/08 after 24 hrs by broth microdilution method; assay type: functional; conditions: H 6966/08, 24 h
# Staphylococcus aureus [29] = experiment: Antibacterial activity against methicillin-resistant Staphylococcus aureus H 5996/08 after 24 hrs by broth microdilution method; assay type: functional; conditions: H 5996/08, 24 h
# Mycobacterium kansasii [30] = experiment: Antimycobacterial activity against Mycobacterium kansasii 6509/96 after 21 days by micromethod; assay type: functional; conditions: 6509/96, 504 h
# Pseudomonas aeruginosa [31] = experiment: Antibacterial activity against Pseudomonas aeruginosa ATCC 9027 after 48 hrs by broth microdilution method; assay type: functional; conditions: ATCC 9027, 48 h
# Mycobacterium avium [32] = experiment: Antimycobacterial activity against Mycobacterium avium CNCTC My 330/88 after 14 days by micromethod; assay type: functional; conditions: CNCTC My 330/88, 336 h
# Escherichia coli [33] = experiment: Antibacterial activity against Escherichia coli ATCC 8739 after 48 hrs by broth microdilution method; assay type: functional; conditions: ATCC 8739, ATCC 8739, 48 h
# [34] = Cytotoxicity against human HepG2 cells assessed as cell viability at 30 uM after 48 hrs by MTT assay; assay type: cell-based; conditions: read-out: Activity
# Klebsiella pneumoniae [35] = experiment: Antibacterial activity against Klebsiella pneumoniae D 11750/08 after 48 hrs by broth microdilution method; assay type: functional; conditions: D 11750/08, 48 h
# [36] = tested on: Trichophyton mentagrophytes; experiment: Antifungal activity against Trichophyton mentagrophytes 445 after 120 hrs by broth microdilution method; assay type: functional, organism-based; conditions: Trichophyton mentagrophytes, 445, 120 h
# Mycobacterium kansasii [37] = experiment: Antimycobacterial activity against Mycobacterium kansasii CNCTC My 235/80 after 21 days by micromethod; assay type: functional; conditions: CNCTC My 235/80, 504 h
# Aspergillus fumigatus [38] = experiment: Antifungal activity against Aspergillus fumigatus 231 after 48 hrs by broth microdilution method; assay type: functional, organism-based; conditions: Aspergillus fumigatus, 231, 48 h
# [39] = tested on: Staphylococcus epidermidis; experiment: Antibacterial activity against Staphylococcus epidermidis H 6966/08 after 48 hrs by broth microdilution method; assay type: functional; conditions: H 6966/08, 48 h
# Nakaseomyces glabratus [40] = experiment: Antifungal activity against Candida glabrata 20/I after 48 hrs by broth microdilution method; assay type: functional
# Klebsiella pneumoniae [41] = experiment: Antibacterial activity against extended spectrum beta-lactamase producing Klebsiella pneumoniae J 14368/08 after 24 hrs by broth microdilution method; assay type: functional; conditions: J 14368/08, 24 h
# Trichosporon asahii [42] = experiment: Antifungal activity against Trichosporon asahii 1188 after 24 hrs by broth microdilution method; assay type: functional; conditions: Trichosporon asahii, 1188, 24 h
# Klebsiella pneumoniae [43] = experiment: Antibacterial activity against extended spectrum beta-lactamase producing Klebsiella pneumoniae J 14368/08 after 48 hrs by broth microdilution method; assay type: functional; conditions: J 14368/08, 48 h
# [44] = Cytotoxicity against human HuH7 cells assessed as cell viability at 30 uM after 48 hrs by MTT assay; assay type: cell-based, Huh-7; conditions: read-out: Activity
# Escherichia coli [45] = experiment: Antibacterial activity against Escherichia coli ATCC 8739 after 24 hrs by broth microdilution method; assay type: functional; conditions: ATCC 8739, ATCC 8739, 24 h
# [46] = Cytotoxicity against human HuH7 cells assessed as reduction in cell viability after 48 hrs by MTT assay; assay type: cell-based; conditions: Huh-7, 48 h
# Lichtheimia corymbifera [47] = experiment: Antifungal activity against Absidia corymbifera 272 after 24 hrs by broth microdilution method; assay type: functional, organism-based; conditions: Lichtheimia corymbifera, 272, 24 h
# Candida tropicalis [48] = experiment: Antifungal activity against Candida tropicalis 156 after 48 hrs by broth microdilution method; assay type: functional; conditions: Candida tropicalis, 156, 48 h
smiles,measurement,setting,value
O=[N+]([O-])c1cc(CSc2nnnn2Cc2ccccc2)cc([N+](=O)[O-])c1,"viability at 48 h, 30 µM",[1],91%
same,IC95,Enterococcus faecalis [2],> 500 µM
same,MIC,Mycobacterium kansasii [3],4 µM
same,IC50,[4],> 30 µM
same,IC95,Enterococcus faecalis [5],> 500 µM
same,IC95,Staphylococcus aureus [6],> 500 µM
same,IC80,Pichia kudriavzevii [7],> 500 µM
same,IC95,Staphylococcus aureus [8],> 500 µM
same,MIC,Mycobacterium kansasii [9],8 µM
same,IC80,Trichosporon asahii [10],> 500 µM
same,IC50,HepG2,> 30 µM
same,IC80,Candida albicans [11],> 500 µM
same,MIC,Mycobacterium avium [12],250 µM
same,"viability at 48 h, 30 µM",[13],87%
same,IC50,HeLa,> 30 µM
same,IC50,Lichtheimia corymbifera [14],> 500 µM
same,MIC,Mycobacterium kansasii [15],2 µM
same,IC80,Candida albicans [16],> 500 µM
same,IC50,[17],> 500 µM
same,MIC,[18],1 µM
same,IC95,Pseudomonas aeruginosa [19],> 500 µM
same,IC95,Klebsiella pneumoniae [20],> 500 µM
same,IC50,Aspergillus fumigatus [21],> 500 µM
same,IC80,Candida tropicalis [22],> 500 µM
same,MIC,[23],2 µM
same,IC80,Nakaseomyces glabratus [24],> 500 µM
same,MIC,Mycobacterium kansasii [25],2 µM
same,IC80,Pichia kudriavzevii [26],> 500 µM
same,IC95,Staphylococcus aureus [27],> 500 µM
same,IC95,[28],> 500 µM
same,IC95,Staphylococcus aureus [29],> 500 µM
same,MIC,Mycobacterium kansasii [30],4 µM
same,IC95,Pseudomonas aeruginosa [31],> 500 µM
same,MIC,Mycobacterium avium [32],250 µM
same,IC95,Escherichia coli [33],> 500 µM
same,"viability at 48 h, 30 µM",[34],94%
same,IC95,Klebsiella pneumoniae [35],> 500 µM
same,IC50,[36],> 500 µM
same,MIC,Mycobacterium kansasii [37],8 µM
same,IC50,Aspergillus fumigatus [38],> 500 µM
same,IC95,[39],> 500 µM
same,IC80,Nakaseomyces glabratus [40],> 500 µM
same,IC95,Klebsiella pneumoniae [41],> 500 µM
same,IC80,Trichosporon asahii [42],> 500 µM
same,IC95,Klebsiella pneumoniae [43],> 500 µM
same,"viability at 48 h, 30 µM",[44],112%
same,IC95,Escherichia coli [45],> 500 µM
same,IC50,[46],> 30 µM
same,IC50,Lichtheimia corymbifera [47],> 500 µM
same,IC80,Candida tropicalis [48],> 500 µM
O=[N+]([O-])c1ccc(C[Se]c2nnnn2C2CCCCC2)c([N+](=O)[O-])c1,"viability at 48 h, 30 µM",[1],32%
same,IC95,Enterococcus faecalis [2],15.6 µM
same,MIC,Mycobacterium kansasii [3],62 µM
same,IC50,[4],< 7.5 µM
same,IC95,Enterococcus faecalis [5],15.6 µM
same,IC95,Staphylococcus aureus [6],31.2 µM
same,IC80,Pichia kudriavzevii [7],> 500 µM
same,IC95,Staphylococcus aureus [8],31.2 µM
same,MIC,Mycobacterium kansasii [9],16 µM
same,IC80,Trichosporon asahii [10],250 µM
same,IC50,HepG2,11 µM
same,IC80,Candida albicans [11],15.6 µM
same,MIC,Mycobacterium avium [12],32 µM
same,"viability at 48 h, 30 µM",[13],11%
same,IC50,HeLa,29 µM
same,IC50,Lichtheimia corymbifera [14],> 500 µM
same,MIC,Mycobacterium kansasii [15],4 µM
same,IC80,Candida albicans [16],15.6 µM
same,IC50,[17],31.2 µM
same,MIC,[18],4 µM
same,IC95,Pseudomonas aeruginosa [19],> 500 µM
same,IC95,Klebsiella pneumoniae [20],> 500 µM
same,IC50,Aspergillus fumigatus [21],> 500 µM
same,IC80,Candida tropicalis [22],> 500 µM
same,MIC,[23],8 µM
same,IC80,Nakaseomyces glabratus [24],62.5 µM
same,MIC,Mycobacterium kansasii [25],16 µM
same,IC80,Pichia kudriavzevii [26],> 500 µM
same,IC95,Staphylococcus aureus [27],31.2 µM
same,IC95,[28],15.6 µM
same,IC95,Staphylococcus aureus [29],31.2 µM
same,MIC,Mycobacterium kansasii [30],62 µM
same,IC95,Pseudomonas aeruginosa [31],> 500 µM
same,MIC,Mycobacterium avium [32],32 µM
same,IC95,Escherichia coli [33],> 500 µM
same,"viability at 48 h, 30 µM",[34],4%
same,IC95,Klebsiella pneumoniae [35],> 500 µM
same,IC50,[36],31.2 µM
same,MIC,Mycobacterium kansasii [37],16 µM
same,IC50,Aspergillus fumigatus [38],> 500 µM
same,IC95,[39],15.6 µM
same,IC80,Nakaseomyces glabratus [40],62.5 µM
same,IC95,Klebsiella pneumoniae [41],> 500 µM
same,IC80,Trichosporon asahii [42],62.5 µM
same,IC95,Klebsiella pneumoniae [43],> 500 µM
same,"viability at 48 h, 30 µM",[44],49%
same,IC95,Escherichia coli [45],> 500 µM
same,IC50,[46],> 30 µM
same,IC50,Lichtheimia corymbifera [47],500 µM
same,IC80,Candida tropicalis [48],> 500 µM
